This test concerns the target USP7 (Homo sapiens (Human), UniProt Q93009). Briefly: USP7 fluorescence polarisation (FP) assay with ubiquitin-Lys-TAMRA substrate. It is filed as biochemical. The settings on record: biochemical inhibition. As to the method: USP7 activity was monitored in a fluorescence polarisation (FP) homogeneous assay using the isopeptide ubiquitin-Lys-TAMRA substrate (U-558, Boston Biochem). Full-length USP7 was purchased from Boston Biochem (His6-USP7FL, E-519). Unless otherwise stated, all other reagents were purchased from Sigma-Aldrich. Enzymatic reactions were conducted in black flat-bottom low volume polystyrene 384-well plates (Grenier) and 15 μL total volume. USP7 (2.5 nM, 5 μL) was incubated in assay buffer (50 mM HEPES (pH 7.2), 150 mM NaCl, 5 mM DTT, 0.05% BSA (w/v), 0.05% CHAPS) in the presence or absence of inhibitor (5 μL). Inhibitors were stored as 10 mM DMSO stocks in an inert environment (low humidity, dark, low oxygen, room temperature) using a Storage Pod System and serial dilutions were prepared in buffer just prior to the assay (from 200 to 0.003 μM, 11 dp curve). Following incubation at room temperature for 30 min, the enzymatic reactions were initiated by dispensing the Ub substrate (50 nM, 5 μL). FP was measured every 5 min over a period of 1.5 h (within the linear range of the assay) using a Pherastar FSX (BMG Labtech) exciting at 530 nm and measuring the amount of parallel and perpendicular light at 575 nm. The FP signal was subsequently normalised to the control without compound present. Data were plotted and fitted, and the concentrations resulting in 50% inhibition (IC50) were calculated using the non-linear regression curve fitting model using GraphPad Prism.

[1] abbreviates: read-out: USP7 IC50 activity (Table 3a, classes).
Setting [2] is: unit not given in Table 3b (Table 1 and key of Table 3a use μM), read-out: USP7 IC50 activity (Table 3b).

Like-named read-outs stand apart in the source and are kept apart here. Some results are limits rather than exact numbers.

USP7, sequence (Q93009 whole entry): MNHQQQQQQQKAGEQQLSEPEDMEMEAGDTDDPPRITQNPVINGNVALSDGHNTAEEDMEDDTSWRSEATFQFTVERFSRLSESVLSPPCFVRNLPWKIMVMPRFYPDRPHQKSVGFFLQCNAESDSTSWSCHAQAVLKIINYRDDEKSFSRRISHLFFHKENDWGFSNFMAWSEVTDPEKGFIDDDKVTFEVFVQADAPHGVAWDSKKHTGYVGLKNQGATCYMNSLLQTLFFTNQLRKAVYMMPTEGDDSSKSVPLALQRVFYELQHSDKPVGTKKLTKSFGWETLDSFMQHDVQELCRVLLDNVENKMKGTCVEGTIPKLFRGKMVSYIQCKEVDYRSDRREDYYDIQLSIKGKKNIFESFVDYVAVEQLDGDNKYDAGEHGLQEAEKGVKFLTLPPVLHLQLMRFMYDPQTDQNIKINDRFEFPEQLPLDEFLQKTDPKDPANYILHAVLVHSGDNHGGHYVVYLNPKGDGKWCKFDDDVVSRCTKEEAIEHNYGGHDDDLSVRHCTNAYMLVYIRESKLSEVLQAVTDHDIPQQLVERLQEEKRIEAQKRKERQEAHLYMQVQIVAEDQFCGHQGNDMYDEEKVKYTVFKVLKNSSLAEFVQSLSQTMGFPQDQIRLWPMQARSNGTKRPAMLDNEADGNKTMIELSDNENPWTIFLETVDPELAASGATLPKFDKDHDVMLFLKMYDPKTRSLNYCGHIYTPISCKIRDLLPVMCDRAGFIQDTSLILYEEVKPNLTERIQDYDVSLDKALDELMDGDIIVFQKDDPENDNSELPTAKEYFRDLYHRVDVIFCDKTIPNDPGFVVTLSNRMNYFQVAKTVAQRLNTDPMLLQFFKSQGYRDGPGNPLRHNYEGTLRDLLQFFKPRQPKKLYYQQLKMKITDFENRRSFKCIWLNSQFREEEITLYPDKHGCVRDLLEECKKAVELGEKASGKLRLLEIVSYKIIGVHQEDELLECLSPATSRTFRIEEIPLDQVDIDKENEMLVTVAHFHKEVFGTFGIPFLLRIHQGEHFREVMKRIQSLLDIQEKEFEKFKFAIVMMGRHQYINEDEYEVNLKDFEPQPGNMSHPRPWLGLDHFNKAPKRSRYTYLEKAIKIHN

As to `Cc1cc(-n2c(Cl)cc3c(=O)n(CC4(O)CCN(C(=O)c5ccccc5Cl)CC4)cnc32)ccc1[C@H]1CO[C@H](C)CN1` [Example 52, 6-Chloro-3-((1-(2-chlorobenzoyl)-4-hydroxypiperidin-4-yl)methyl)-7-(3-methyl-4-((3S,6R)-6-methylmorpholin-3-yl)phenyl)-3,7-dihydro-4H-pyrrolo[2,3-d]pyrimidin-4-one], the IC50 by setting is: under setting [1], 0.1 to 0.25 µM; under setting [2], 0.179 µM.

Take `Cc1cc(-n2c(Cl)cc3c(=O)n(CC4(O)CCN(C(=O)c5ccc(Cl)cc5)CC4)cnc32)ccc1[C@H]1CO[C@H](C)CN1` [Example 12, 6-Chloro-3-((1-(4-chlorobenzoyl)-4-hydroxypiperidin-4-yl)methyl)-7-(3-methyl-4-((3S,6R)-6-methylmorpholin-3-yl)phenyl)-3,7-dihydro-4H-pyrrolo[2,3-d]pyrimidin-4-one]: the IC50 is 0.1 to 0.25 µM under setting [1] and 0.13 µM under setting [2].

Turning to `CC1(C(=O)N2CCC(O)(Cn3cnc4c(cc(Cl)n4-c4ccc([C@@H]5CO[C@@H](C6CC6)CN5)cc4)c3=O)CC2)CC1` [Example 100, 6-Chloro-7-(4-((3R,6S)-6-cyclopropylmorpholin-3-yl)phenyl)-3-((4-hydroxy-1-(1-methylcyclopropane-1-carbonyl)piperidin-4-yl)methyl)-3,7-dihydro-4H-pyrrolo[2,3-d]pyrimidin-4-one], the IC50 runs as follows: under setting [1], below 0.1 µM; under setting [2], 0.079 µM.

As to `C[C@H]1COC[C@@H](c2ccc(-n3c(Cl)cc4c(=O)n(CC5(O)CCN(C(=O)c6ccc(Cl)cc6)CC5)cnc43)cc2)N1` (single isomer, unassigned) [Example 26], the IC50 by setting is: under setting [1], 0.1 to 0.25 µM; under setting [2], 0.161 µM.

Consider `C[C@@H]1CN[C@@H](c2ccc(-n3c(Cl)cc4c(=O)n(CC5(O)CCN(C(=O)[C@@]6(C)C[C@@H]6C(F)(F)F)CC5)cnc43)cc2)CO1` [Example 109, 6-Chloro-3-((4-hydroxy-1-((1S,2S)-1-methyl-2-(trifluoromethyl)cyclopropane-1-carbonyl)piperidin-4-yl)methyl)-7-(4-((3S,6R)-6-methylmorpholin-3-yl)phenyl)-3,7-dihydro-4H-pyrrolo[2,3-d]pyrimidin-4-one], for which the IC50 is, setting by setting: under setting [1], 0.1 to 0.25 µM; under setting [2], 0.182 µM.

`CC1(C)CN[C@H](c2ccc(-n3c(Cl)cc4c(=O)n(CC5(O)CCN(C(=O)C6(C7CC7)CC6)CC5)cnc43)cc2)CO1` (single isomer, unassigned) [Example 41]: the IC50 under setting [1] is below 0.1 µM and the IC50 under setting [2] was 0.079 µM.

`C[C@H]1COC[C@@H](c2ccc(-n3c(Cl)cc4c(=O)n(CC5(O)CCN(C(=O)C6(C)CC6)CC5)cnc43)cc2)N1` (racemic) [Example 2, rac-6-Chloro-3-((4-hydroxy-1-(1-methylcyclopropane-1-carbonyl)piperidin-4-yl)methyl)-7-(4-((3R,5S)-5-methylmorpholin-3-yl)phenyl)-3,7-dihydro-4H-pyrrolo[2,3-d]pyrimidin-4-one]: the IC50 under setting [1] is below 0.1 µM and the IC50 under setting [2] amounted to 0.046 µM.

For the compound `Cc1cc(-n2c(Cl)cc3c(=O)n(CC4(O)CCN(C(=O)c5ccc(C6(C)CC6)cc5)CC4)cnc32)ccc1[C@H]1CO[C@H](C)CN1` [Example 94, 6-Chloro-3-((4-hydroxy-1-(4-(1-methylcyclopropyl)benzoyl)piperidin-4-yl)methyl)-7-(3-methyl-4-((3S,6R)-6-methylmorpholin-3-yl)phenyl)-3,7-dihydro-4H-pyrrolo[2,3-d]pyrimidin-4-one], the IC50 was 0.1 to 0.25 µM under setting [1] and 0.193 µM under setting [2].

In the case of `O=C(C[C@H](c1ccccc1)C(F)F)N1CCC(O)(Cn2cnc3c(cc(Cl)n3-c3ccc([C@@H]4COCCN4)cc3)c2=O)CC1` (single isomer, unassigned) [Example 85], the IC50 reads like this: under setting [1], below 0.1 µM; under setting [2], 0.006 µM.

Regarding `Cc1ccc(C(=O)N2CCC(O)(Cn3cnc4c(cc(Cl)n4-c4ccc([C@H]5CO[C@H](C)CN5)c(C)c4)c3=O)CC2)cc1` [Example 55], the IC50 under setting [1] is 0.1 to 0.25 µM.

Take `C[C@@H]1CN[C@@H](c2ccc(-n3c(Cl)cc4c(=O)n(CC5(O)CCN(C(=O)C6(C)CC6)CC5)cnc43)cc2)CO1` [Example 107, 6-Chloro-3-((4-hydroxy-1-(1-methylcyclopropane-1-carbonyl)piperidin-4-yl)methyl)-7-(4-((3S,6R)-6-methylmorpholin-3-yl)phenyl)-3,7-dihydro-4H-pyrrolo[2,3-d]pyrimidin-4-one]: the IC50 was below 0.1 µM under setting [1] and 0.093 µM under setting [2].

For the compound `O=C(N1CCC(O)(Cn2cnc3c(cc(Cl)n3-c3ccc([C@@H]4NC[C@@H]5CC[C@H]4O5)cc3)c2=O)CC1)C1(C2CC2)CC1` [Example 49, 7-(4-((1R,2S,5S)-8-Oxa-3-azabicyclo[3.2.1]octan-2-yl)phenyl)-3-((1-([1,1′-bi(cyclopropane)]-1-carbonyl)-4-hydroxypiperidin-4-yl)methyl)-6-chloro-3,7-dihydro-4H-pyrrolo[2,3-d]pyrimidin-4-one], the IC50 is, setting by setting: under setting [1], 0.1 to 0.25 µM; under setting [2], 0.223 µM.

As for `O=C(c1ccc(Cl)cc1)N1CCC(O)(Cn2cnc3c(cc(Cl)n3-c3ccc([C@H]4CO[C@H](C5CC5)CN4)cc3)c2=O)CC1` (single isomer, unassigned) [Example 61], the IC50 was 0.1 to 0.25 µM under setting [1] and 0.128 µM under setting [2].

Consider `O=C(N1CCC(O)(Cn2cnc3c(cc(Cl)n3-c3ccc([C@H]4COCCN4)cc3)c2=O)CC1)C1(C2CC2)CC1` (single isomer, unassigned) [Example 79], for which the IC50 under setting [1] is below 0.1 µM and the IC50 under setting [2] came to 0.039 µM.

For `CC1(C(=O)N2CCC(O)(Cn3cnc4c(cc(Cl)n4-c4ccc(C5(C)COCCN5)cc4)c3=O)CC2)CC1` (stereo not shown) [Example 3, 6-Chloro-3-((4-hydroxy-1-(1-methylcyclopropane-1-carbonyl)piperidin-4-yl)methyl)-7-(4-(3-methylmorpholin-3-yl)phenyl)-3,7-dihydro-4H-pyrrolo[2,3-d]pyrimidin-4-one], the IC50 runs as follows: under setting [1], 0.1 to 0.25 µM; under setting [2], 0.132 µM.

Take `CC1(C)COCC(c2ccc(-n3c(Cl)cc4c(=O)n(CC5(O)CCN(C(=O)c6ccc(Cl)cc6)CC5)cnc43)cc2)N1` (stereo not shown) [Example 16, 6-Chloro-3-((1-(4-chlorobenzoyl)-4-hydroxypiperidin-4-yl)methyl)-7-(4-(5,5-dimethylmorpholin-3-yl)phenyl)-3,7-dihydro-4H-pyrrolo[2,3-d]pyrimidin-4-one]: the IC50 is, setting by setting: under setting [1], 0.1 to 0.25 µM; under setting [2], 0.249 µM.

With `O=C(c1ccc(Cl)cc1)N1CCC(O)(Cn2cnc3c(cc(Cl)n3-c3ccc([C@@H]4COCCN4)cc3)c2=O)CC1` (single isomer, unassigned) [Example 77], the IC50 by setting is: under setting [1], below 0.1 µM; under setting [2], 0.052 µM.

Regarding `C[C@H]1CN[C@H](c2ccc(-n3c(Cl)cc4c(=O)n(CC5(O)CCN(C(=O)c6cccc(Cl)c6)CC5)cnc43)cc2)CO1` [Example 35, 6-Chloro-3-((1-(3-chlorobenzoyl)-4-hydroxypiperidin-4-yl)methyl)-7-(4-((3R,6S)-6-methylmorpholin-3-yl)phenyl)-3,7-dihydro-4H-pyrrolo[2,3-d]pyrimidin-4-one], the IC50 reads like this: under setting [1], 0.1 to 0.25 µM; under setting [2], 0.224 µM.

`C[C@H]1CN[C@H](c2ccc(-n3c(Cl)cc4c(=O)n(CC5(O)CCN(C(=O)[C@]6(C)C[C@H]6C(F)F)CC5)cnc43)cc2)CO1` [Example 112, 6-Chloro-3-((1-((1R,2R)-2-(difluoromethyl)-1-methylcyclopropane-1-carbonyl)-4-hydroxypiperidin-4-yl)methyl)-7-(4-((3R,6S)-6-methylmorpholin-3-yl)phenyl)-3,7-dihydro-4H-pyrrolo[2,3-d]pyrimidin-4-one]: the IC50 under setting [1] was below 0.1 µM and the IC50 under setting [2] was 0.018 µM.

For `C[C@H]1CN[C@H](c2ccc(-n3c(Cl)cc4c(=O)n(CC5(O)CCN(C(=O)c6ccc(C(F)F)cc6)CC5)cnc43)cc2)CO1` [Example 91, 6-Chloro-3-((1-(4-(difluoromethyl)benzoyl)-4-hydroxypiperidin-4-yl)methyl)-7-(4-((3R,6S)-6-methylmorpholin-3-yl)phenyl)-3,7-dihydro-4H-pyrrolo[2,3-d]pyrimidin-4-one], the IC50 was 0.1 to 0.25 µM under setting [1] and 0.167 µM under setting [2].

For the compound `Cc1cc(-n2c(Cl)cc3c(=O)n(CC4(O)CCN(C(=O)c5ccc(C6CC6)cc5)CC4)cnc32)ccc1[C@H]1CO[C@H](C)CN1` [Example 93, 6-Chloro-3-((1-(4-cyclopropylbenzoyl)-4-hydroxypiperidin-4-yl)methyl)-7-(3-methyl-4-((3S,6R)-6-methylmorpholin-3-yl)phenyl)-3,7-dihydro-4H-pyrrolo[2,3-d]pyrimidin-4-one], the IC50 by setting is: under setting [1], 0.1 to 0.25 µM; under setting [2], 0.16 µM.

Regarding `CC1(C(=O)N2CCC(O)(Cn3cnc4c(cc(Cl)n4-c4ccc([C@@H]5COCCN5)cc4)c3=O)CC2)CC1` (single isomer, unassigned) [Example 71], the IC50 by setting is: under setting [1], below 0.1 µM; under setting [2], 0.094 µM.

(Values after patent publication US20250122223A1, “HETEROCYCLIC COMPOUNDS AS UBIQUITIN SPECIFIC PROTEASE 7 INHIBITORS” (ALMAC DISCOVERY LIMITED, priority 2022, published 2025).)
